PubChem BioAssay (NCI)
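Growth conditions: 96-well plates. Treatment: test compound, 48 hours, 5 concentrations. Analysis: linear interpolation between bracketing concentrations; unreached endpoints set to highest concentration. GI50: concentration for 50% inhibition of growth. TGI: concentration producing complete growth inhibition.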

How the values were obtained:
Experiment in all cases: NCI-60 cell line screen, 48 h
[1] = system: OVCAR-8 ovarian
[2] = system: IGROV1 ovarian
[3] = system: K-562 leukemia
[4] = system: SW-620 colon
[5] = system: MOLT-4 leukemia
[6] = system: SN12C renal
[7] = system: SF-539 CNS
[8] = system: A549 NSCLC
[9] = system: OVCAR-3 ovarian
[10] = system: HT29 colon

COc1cc(-c2cc(-c3ccc(N(C)C)cc3)nc(N3CCC(O)CC3)c2C#N)cc(OC)c1OC
GI50 [1]: 0.485 µM
TGI [1]: > 45.7 µM
GI50 [2]: 0.555 µM
TGI [2]: 38.4 µM
GI50 [3]: 0.367 µM
TGI [3]: 10.5 µM
GI50 [4]: 0.448 µM
TGI [4]: > 35.6 µM
GI50 [5]: 0.706 µM
TGI [5]: 10.7 µM
GI50 [6]: 0.689 µM
TGI [6]: 6.44 µM
GI50 [7]: 0.82 µM
TGI [7]: 3.24 µM
GI50 [8]: 0.378 µM
GI50 [9]: 1.46 µM
TGI [9]: 3.97 µM
GI50 [10]: 0.272 µM
TGI [10]: 1.43 µM

COc1ccc(NC(=O)CC/C(CC(=O)c2ccco2)=N/Nc2ccc([N+](=O)[O-])cc2[N+](=O)[O-])cc1
TGI [1]: > 100 µM
TGI [2]: > 100 µM
TGI [3]: > 100 µM
TGI [4]: > 100 µM
TGI [5]: 97.3 µM
TGI [6]: > 100 µM
TGI [7]: > 100 µM
TGI [8]: > 100 µM
TGI [9]: > 100 µM
TGI [10]: > 100 µM

CCOC(=O)c1cc2c(n1Cc1cccc(OC)c1)-c1oncc1CC2
GI50 [1]: 10.3 µM
TGI [1]: > 100 µM
GI50 [2]: 0.78 µM
TGI [2]: > 100 µM
GI50 [3]: 0.343 µM
TGI [3]: > 100 µM
GI50 [4]: 0.433 µM
TGI [4]: > 100 µM
GI50 [5]: 1.16 µM
TGI [5]: > 100 µM
GI50 [6]: 13.5 µM
TGI [6]: > 100 µM
GI50 [7]: 1.16 µM
TGI [7]: 7.35 µM
GI50 [8]: 9.42 µM
TGI [8]: > 100 µM
GI50 [9]: 0.38 µM
TGI [9]: 2.66 µM
GI50 [10]: 0.37 µM
TGI [10]: 15.8 µM

Cn1cc(-c2ccc3cc(-c4ccc(CC(=O)Nc5cc(C(C)(C)C)nn5C)cc4)cnc3c2)cn1
GI50 [1]: 0.274 µM
TGI [1]: > 100 µM
GI50 [2]: 0.063 µM
TGI [2]: > 100 µM
GI50 [3]: 0.347 µM
TGI [3]: > 100 µM
GI50 [4]: 0.324 µM
TGI [4]: > 100 µM
GI50 [5]: 0.282 µM
TGI [5]: > 100 µM
GI50 [6]: 0.23 µM
TGI [6]: > 100 µM
GI50 [7]: 0.112 µM
TGI [7]: 12.4 µM
GI50 [8]: 0.336 µM
TGI [8]: > 100 µM
GI50 [9]: 0.336 µM
TGI [9]: > 100 µM
GI50 [10]: 0.377 µM
TGI [10]: > 100 µM

Cc1ccc(CCC(=O)Nc2ncc(Cc3cc(Cl)ccc3Cl)s2)o1
GI50 [1]: 0.432 µM
TGI [1]: > 26.1 µM
GI50 [2]: 0.334 µM
TGI [2]: 20.8 µM
GI50 [3]: 0.0401 µM
TGI [3]: > 100 µM
GI50 [4]: 0.0694 µM
TGI [4]: > 100 µM
GI50 [5]: 0.222 µM
TGI [5]: > 44.2 µM
GI50 [6]: 0.489 µM
TGI [6]: 11.1 µM
GI50 [7]: 0.218 µM
TGI [7]: 0.712 µM
GI50 [8]: 0.376 µM
TGI [8]: > 58.8 µM
GI50 [9]: 0.172 µM
TGI [9]: 1.36 µM
GI50 [10]: 0.054 µM

COC(=O)C1=Cc2cc3c(cc2[C@H](c2ccc4c(c2)OCO4)C1C(=O)OC)OCO3 (stereo partly drawn)
TGI [1]: > 100 µM
TGI [2]: > 100 µM
TGI [3]: > 100 µM
TGI [4]: > 100 µM
TGI [5]: > 100 µM
TGI [6]: > 100 µM
TGI [7]: > 100 µM
TGI [8]: > 100 µM
TGI [9]: > 100 µM
TGI [10]: > 100 µM

COc1c2occc2c(OC)c2c(=O)c(S(=O)(=O)NC(=O)Nc3ccc(Cl)cc3)coc12
TGI [1]: > 10 µM
TGI [2]: > 10 µM
TGI [3]: > 10 µM
TGI [4]: > 10 µM
TGI [5]: > 10 µM
TGI [6]: > 10 µM
TGI [7]: > 10 µM
TGI [8]: > 10 µM
TGI [9]: > 10 µM
TGI [10]: > 10 µM

CCN1CCC(C(=O)Nc2n[nH]c3nnc(-c4cccc(F)c4F)cc23)CC1
GI50 [1]: 9.46 µM
TGI [1]: > 25 µM
GI50 [2]: > 21.4 µM
TGI [2]: > 25 µM
GI50 [3]: 8.39 µM
TGI [3]: > 25 µM
GI50 [4]: 10.4 µM
TGI [4]: > 25 µM
GI50 [5]: 12.1 µM
TGI [5]: > 25 µM
GI50 [6]: 9.49 µM
TGI [6]: > 25 µM
GI50 [7]: 3.98 µM
TGI [7]: 18.3 µM
GI50 [8]: 10.5 µM
TGI [8]: > 25 µM
GI50 [9]: 2.78 µM
TGI [9]: > 14.2 µM
GI50 [10]: 5.02 µM
TGI [10]: > 25 µM

COc1ccc(/C=C2/SC(=Nc3c(C)nn(-c4ccccc4)c3N)NC2=O)cc1
GI50 [1]: 13.7 µM
TGI [1]: 77.9 µM
GI50 [2]: 5.2 µM
TGI [2]: 28.8 µM
GI50 [3]: 3.02 µM
TGI [3]: > 100 µM
GI50 [4]: 3.31 µM
TGI [4]: 13.9 µM
GI50 [5]: 8.4 µM
TGI [5]: > 100 µM
GI50 [6]: 8.39 µM
TGI [6]: 55.2 µM
GI50 [7]: 2.38 µM
TGI [7]: 10.8 µM
GI50 [8]: 2.74 µM
TGI [8]: 24 µM
GI50 [9]: 2.6 µM
TGI [9]: 5.9 µM
GI50 [10]: 3.8 µM
TGI [10]: 16.6 µM

O=C(Nc1nc2ncn(CCOC(=O)c3ccccc3)c2c(=O)[nH]1)c1ccccc1
TGI [1]: > 100 µM
TGI [2]: > 100 µM
TGI [3]: > 100 µM
TGI [4]: > 100 µM
TGI [5]: > 100 µM
TGI [6]: > 100 µM
TGI [7]: 65.2 µM
TGI [8]: > 100 µM
TGI [9]: > 100 µM
TGI [10]: > 37.9 µM

CC(C)NC(=O)OCc1nnn2c1C(OC(=O)NC(C)C)CC2 (stereo not drawn)
TGI [1]: > 100 µM
TGI [2]: > 100 µM
TGI [3]: > 100 µM
TGI [4]: > 100 µM
TGI [5]: > 100 µM
TGI [6]: > 100 µM
TGI [7]: > 100 µM
TGI [8]: > 100 µM
TGI [9]: > 100 µM
TGI [10]: > 100 µM

CCOC(=O)C(C(=O)c1ccccc1-c1ccccc1C(=O)O)=P(c1ccccc1)(c1ccccc1)c1ccccc1
TGI [1]: > 100 µM
TGI [2]: 47.3 µM
TGI [3]: > 100 µM
TGI [4]: > 100 µM
TGI [5]: 79 µM
TGI [6]: > 100 µM
TGI [7]: 35.3 µM
TGI [8]: > 100 µM
TGI [9]: 67 µM
TGI [10]: > 100 µM

COc1c(O)c2ccccc2c2cc(O)ccc12
TGI [1]: 15.4 µM
TGI [2]: 21.6 µM
TGI [3]: 21.9 µM
TGI [4]: 6.69 µM
TGI [5]: 77.4 µM
TGI [6]: 14.1 µM
TGI [7]: 9.88 µM
TGI [8]: 23.9 µM
TGI [9]: 19.2 µM
TGI [10]: 47.4 µM

N#Cc1c(N)nn(C(=O)c2ccc(NC(=O)c3ccccn3)cc2)c1-c1ccc(Cl)cc1
GI50 [1]: 3.38 µM
TGI [1]: 17.7 µM
GI50 [2]: 2.63 µM
TGI [2]: 16.8 µM
GI50 [3]: 6.62 µM
TGI [3]: > 100 µM
GI50 [4]: 3.7 µM
TGI [4]: > 100 µM
GI50 [5]: 25.7 µM
TGI [5]: > 100 µM
GI50 [6]: 6.42 µM
TGI [6]: > 100 µM
GI50 [7]: 3.21 µM
TGI [7]: 12.5 µM
GI50 [8]: 3.24 µM
TGI [8]: 12.8 µM
GI50 [9]: 3.9 µM
TGI [9]: 24.3 µM
GI50 [10]: 3.55 µM
TGI [10]: > 100 µM

Cc1cc2c(-c3nc4ccccc4[nH]3)c(O)c(O)cc2c(O)c1-c1c(C)cc2c(-c3nc4ccccc4[nH]3)c(O)c(O)cc2c1O
GI50 [1]: 0.0664 µM
TGI [1]: > 50 µM
GI50 [2]: 0.0416 µM
TGI [2]: > 23.1 µM
GI50 [3]: 0.0199 µM
TGI [3]: > 50 µM
GI50 [4]: 0.0209 µM
TGI [4]: > 22 µM
GI50 [5]: 0.019 µM
TGI [5]: > 50 µM
GI50 [6]: 0.0272 µM
TGI [6]: 8.08 µM
GI50 [7]: 0.0344 µM
TGI [7]: 0.494 µM
GI50 [8]: 0.0117 µM
TGI [8]: 9.66 µM
GI50 [9]: 0.0411 µM
TGI [9]: 15.1 µM
GI50 [10]: 0.0217 µM
TGI [10]: > 24.4 µM
